In experiment [1] the target is Eukaryotic translation initiation factor 4E (Mus musculus, UniProt P63073). Briefly: blockers of eIF4G binding by eIF4E – biochemical, TR-FRET, dose response (AID 855).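 Further: potency for disrupting eIF4E binding to eIF4GI seen as loss of FRET.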 The format is functional. For orientation: In TR-FRET formats the signal depends on donor and acceptor labels being close together.
The target in experiment [2] is T1, Calpain-2 catalytic subunit (Sus scrofa, UniProt P43367).
T1 sequence (P43367 whole entry): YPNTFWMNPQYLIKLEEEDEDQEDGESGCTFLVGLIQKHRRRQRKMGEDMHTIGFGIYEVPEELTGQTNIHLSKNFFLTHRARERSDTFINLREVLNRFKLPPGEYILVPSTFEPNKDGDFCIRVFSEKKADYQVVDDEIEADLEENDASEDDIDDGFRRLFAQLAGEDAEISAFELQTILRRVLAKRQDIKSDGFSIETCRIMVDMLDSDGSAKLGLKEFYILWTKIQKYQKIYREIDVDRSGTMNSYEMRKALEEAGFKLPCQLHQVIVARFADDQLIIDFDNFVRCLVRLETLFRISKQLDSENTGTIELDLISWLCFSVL
Briefly: m-calpain protease blockers, concentration series – biochemical, fluorogenic peptide substrate, dose response (AID 1420). The experiment is classed as functional.

For the next experiment, the system named is Escherichia coli. Briefly: microbe, parasite or virus in culture.
The nature of experiment [3]: Counterscreen for IDE inhibitors: Luminescence-based cell-based high throughput dose response assay to identify compounds that are cytotoxic to HEK cells. [Related pubchem assays: 434962 (Primary screen (IDE inhibitors in singlicate)), 449730 (Counterscreen (Cytotoxicity in triplicate)), 435028 (Confirmation (IDE inhibitors in triplicate)) …. The experiment is classed as functional. The conditions noted are these: HEK293. (In general: Counterscreens check selectivity or assay interference.)

Another experiment has as its target T2, Insulin-degrading enzyme (Homo sapiens, UniProt P14735).
T2 sequence (P14735 whole entry): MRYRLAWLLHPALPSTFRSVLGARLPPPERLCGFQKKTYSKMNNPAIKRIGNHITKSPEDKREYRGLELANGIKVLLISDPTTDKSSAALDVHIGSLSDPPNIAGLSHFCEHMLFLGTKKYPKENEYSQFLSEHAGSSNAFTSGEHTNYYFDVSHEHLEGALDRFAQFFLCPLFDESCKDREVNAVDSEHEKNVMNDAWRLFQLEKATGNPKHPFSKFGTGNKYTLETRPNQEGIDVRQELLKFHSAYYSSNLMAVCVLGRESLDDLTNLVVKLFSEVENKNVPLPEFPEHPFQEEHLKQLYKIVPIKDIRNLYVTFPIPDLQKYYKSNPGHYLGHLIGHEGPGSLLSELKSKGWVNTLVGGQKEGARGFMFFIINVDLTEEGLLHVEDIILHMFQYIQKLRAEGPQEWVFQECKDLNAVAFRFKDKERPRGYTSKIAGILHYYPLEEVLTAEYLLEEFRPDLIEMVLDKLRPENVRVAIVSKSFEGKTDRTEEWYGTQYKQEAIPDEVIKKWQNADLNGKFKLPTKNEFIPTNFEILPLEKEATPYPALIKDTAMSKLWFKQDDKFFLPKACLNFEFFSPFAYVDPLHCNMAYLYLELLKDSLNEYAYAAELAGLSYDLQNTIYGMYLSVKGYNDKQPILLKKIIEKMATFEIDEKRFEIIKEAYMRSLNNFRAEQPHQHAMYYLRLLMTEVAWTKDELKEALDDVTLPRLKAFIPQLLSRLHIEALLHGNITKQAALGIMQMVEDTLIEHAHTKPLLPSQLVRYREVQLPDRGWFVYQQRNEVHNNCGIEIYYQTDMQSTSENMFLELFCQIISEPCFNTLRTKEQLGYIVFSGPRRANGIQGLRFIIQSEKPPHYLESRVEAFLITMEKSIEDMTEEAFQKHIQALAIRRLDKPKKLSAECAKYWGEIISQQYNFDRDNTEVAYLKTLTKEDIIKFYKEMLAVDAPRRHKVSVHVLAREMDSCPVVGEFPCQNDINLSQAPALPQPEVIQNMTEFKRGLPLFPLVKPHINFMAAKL
In words: Dose Response: Fluorescence polarization-based cell-based high throughput dose response assay for inhibitors of insulin-degrading enzyme (IDE). [Related pubchem assays: 434962 (Primary screen (IDE inhibitors in singlicate)), 449730 (Counterscreen (Cytotoxicity in triplicate)), 435028 (Confirmation (IDE inhibitors in triplicate)), 434984 (Summary …. The experiment is classed as functional. On the technique in general: Fluorescence polarisation rises when a labelled molecule tumbles more slowly, as on binding a larger partner.

Experiment [4] can be described thus: A cytotoxicity screen of small molecule inhibitors of the PhoP region in Salmonella typhi identified in the primary screen. [Related pubchem assays: 1850, 1864, 1985 ]. The experiment is classed as functional.
Experiment [5] can be described thus: Trypanosoma cruzi growth suppression in host cells – NIH3T3 host cells, beta-gal luminescence, confirmation (AID 2044).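 Further: intracellular parasites grown in NIH/3T3 mouse fibroblasts as host cells; luminescent beta-galactosidase reporter signal from transgenic T. cruzi replicating inside host cells; inhibitors lower the luminescence signal.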 The format is functional, cell-based.
For the next experiment, the system named is INS1. Briefly: INS-1E survival protection against cytokine death – cell-based, luminescence, retest, dose response (AID 449756).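 Further: cell death triggered by IL-1 beta plus TNF-alpha plus IFN-gamma mixture; protective hits raise ATP signal compared with cytokine alone wells.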 The conditions noted are these: Rattus norvegicus. The experiment is classed as functional.
Experiment [6] in a line: NIH3T3 cell viability loss – ATP luminescence, mouse fibroblasts, counter-screen, dose response (AID 2010).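 Further: cells exposed to compound for about 90 hours before reading.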 The experiment is classed as functional, cell-based.
Experiment [7] can be described thus: HEK-293T cell viability reduction – luminescence, B-cell screen hits, cytotoxicity control for BCR NF-kB inhibitor project, dose response (AID 489021).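 Further: HEK-293T cells carrying an NF-kB luciferase reporter; cells exposed to compound for about 14 hours before viability readout.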 The format is functional, cell-based.
The target in experiment [8] is Photoreceptor-specific nuclear receptor (Homo sapiens, UniProt Q9Y5X4). The experiment is classed as functional.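 Further: potency for compounds that break the NR2E3 corepressor complex and count as activators.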
Experiment [9] addresses Peroxisome proliferator-activated receptor gamma/Nuclear receptor corepressor 2 (Homo sapiens, UniProt P37231+Q9Y618). The format is functional.
The target of experiment [10] is Lysosomal acid glucosylceramidase (Homo sapiens, UniProt P04062). Briefly: Dose response cell-based high throughput screening assay to identify enhancers of beta-glucosidase activity. [Related pubchem assays: 784 ]. The experiment is classed as functional.
The target in experiment [11] is T3, Microphthalmia-associated transcription factor (Homo sapiens, UniProt O75030).
T3 sequence (O75030 whole entry): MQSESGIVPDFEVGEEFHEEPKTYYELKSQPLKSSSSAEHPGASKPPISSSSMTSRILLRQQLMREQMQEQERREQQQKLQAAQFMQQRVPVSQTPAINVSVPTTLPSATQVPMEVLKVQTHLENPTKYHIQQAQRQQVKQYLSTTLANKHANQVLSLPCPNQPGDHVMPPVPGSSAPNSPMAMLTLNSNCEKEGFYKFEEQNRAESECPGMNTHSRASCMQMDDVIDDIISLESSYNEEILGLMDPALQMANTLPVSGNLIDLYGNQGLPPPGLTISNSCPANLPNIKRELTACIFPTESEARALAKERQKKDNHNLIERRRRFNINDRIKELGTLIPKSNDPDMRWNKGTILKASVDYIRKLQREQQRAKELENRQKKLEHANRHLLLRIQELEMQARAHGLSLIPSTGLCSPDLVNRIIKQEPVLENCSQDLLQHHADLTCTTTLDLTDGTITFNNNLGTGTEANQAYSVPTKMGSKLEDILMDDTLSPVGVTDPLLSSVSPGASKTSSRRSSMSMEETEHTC
Briefly: reducers of TRPM1 reporter luminescence, concentration series – cell-based, SK-MEL-5, cherry-picked, set 3, MITF inhibitor project, dose response (AID 493073).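 Further: SK-MEL-5 melanoma cells with luciferase driven by the MITF target TRPM1 promoter.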 The experiment is classed as functional.

The nature of experiment [12]: luciferase reporter signal suppression in cells – H4 neuroglioma cells, luminescence, dose response (AID 1990). The format is functional, cell-based.
Experiment [13] can be described thus: Luminescence-based counterscreen assay for KLF5 inhibitors: dose response cell-based high throughput screening assay to identify cytotoxic compounds using the IEC-6 intestinal epithelial cell line. [Related pubchem assays: 1700 (Primary screen.), 1834 (Confirmation screen.), 1858 (Summary AID.), 1905 (Counterscreen.)]. The format is functional.
A short description of experiment [14]: loss of viability in HepG2 cells – cell-based, CellTiter-Glo, cherry-picked, cytotoxicity control for Shn3 inhibitor project, dose response (AID 624134). The format is functional.
Experiment [15] can be described thus: reduction of Shn3 3'UTR-driven luciferase in osteoblasts – cell-based, Clone20 osteoblasts, firefly luciferase, cherry-picked, dose response (AID 624132).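 Further: firefly luciferase luminescence from reporter carrying the Shn3 3'UTR in osteoblasts.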 The format is functional.
The nature of experiment [16]: Luminescence Cell-Based Dose Response HTS to Identify Inhibitors of 5'UTR Stem-Loop Driven Prion Protein mRNA Translation in H4 Neuroglioblastoma Cells. [Related pubchem assays: 1827 (Project Summary), 1813 (Primary HTS)]. The format is functional.
Experiment [17] in a line: Shn3 3'UTR reporter signal decrease – cell-based, Clone20 osteoblasts, firefly luciferase, cherry-pick, set 2, Schnurri-3 inhibitor project, dose response (AID 720490).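 Further: actives lower the luminescence signal as inhibitors.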 The experiment is classed as functional.

As a reminder, the IC50 is the concentration that inhibits the measured activity by half. A word on the AC50: it is the concentration at which the activity in the assay is half-maximal. As usually defined, the EC50 is the concentration giving half of the maximal effect.

Molecules are shown by their SMILES. Active and inactive are the calls of the source.

Chain of Peroxisome proliferator-activated receptor gamma/Nuclear receptor corepressor 2 (P37231 whole entry): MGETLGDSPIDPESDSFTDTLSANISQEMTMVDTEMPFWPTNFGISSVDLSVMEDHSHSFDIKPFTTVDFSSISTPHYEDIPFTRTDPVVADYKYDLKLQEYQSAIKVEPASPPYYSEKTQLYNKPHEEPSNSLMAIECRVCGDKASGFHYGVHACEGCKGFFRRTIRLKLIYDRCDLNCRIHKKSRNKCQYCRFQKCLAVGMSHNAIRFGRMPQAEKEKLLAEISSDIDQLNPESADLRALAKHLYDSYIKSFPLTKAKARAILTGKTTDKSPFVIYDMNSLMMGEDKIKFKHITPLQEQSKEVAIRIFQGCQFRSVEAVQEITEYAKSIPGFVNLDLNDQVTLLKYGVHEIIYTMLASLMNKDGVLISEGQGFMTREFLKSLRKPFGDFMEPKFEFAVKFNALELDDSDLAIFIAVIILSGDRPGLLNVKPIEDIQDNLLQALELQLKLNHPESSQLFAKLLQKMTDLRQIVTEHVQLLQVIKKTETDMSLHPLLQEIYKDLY
Chain of Peroxisome proliferator-activated receptor gamma/Nuclear receptor corepressor 2 (Q9Y618 whole entry): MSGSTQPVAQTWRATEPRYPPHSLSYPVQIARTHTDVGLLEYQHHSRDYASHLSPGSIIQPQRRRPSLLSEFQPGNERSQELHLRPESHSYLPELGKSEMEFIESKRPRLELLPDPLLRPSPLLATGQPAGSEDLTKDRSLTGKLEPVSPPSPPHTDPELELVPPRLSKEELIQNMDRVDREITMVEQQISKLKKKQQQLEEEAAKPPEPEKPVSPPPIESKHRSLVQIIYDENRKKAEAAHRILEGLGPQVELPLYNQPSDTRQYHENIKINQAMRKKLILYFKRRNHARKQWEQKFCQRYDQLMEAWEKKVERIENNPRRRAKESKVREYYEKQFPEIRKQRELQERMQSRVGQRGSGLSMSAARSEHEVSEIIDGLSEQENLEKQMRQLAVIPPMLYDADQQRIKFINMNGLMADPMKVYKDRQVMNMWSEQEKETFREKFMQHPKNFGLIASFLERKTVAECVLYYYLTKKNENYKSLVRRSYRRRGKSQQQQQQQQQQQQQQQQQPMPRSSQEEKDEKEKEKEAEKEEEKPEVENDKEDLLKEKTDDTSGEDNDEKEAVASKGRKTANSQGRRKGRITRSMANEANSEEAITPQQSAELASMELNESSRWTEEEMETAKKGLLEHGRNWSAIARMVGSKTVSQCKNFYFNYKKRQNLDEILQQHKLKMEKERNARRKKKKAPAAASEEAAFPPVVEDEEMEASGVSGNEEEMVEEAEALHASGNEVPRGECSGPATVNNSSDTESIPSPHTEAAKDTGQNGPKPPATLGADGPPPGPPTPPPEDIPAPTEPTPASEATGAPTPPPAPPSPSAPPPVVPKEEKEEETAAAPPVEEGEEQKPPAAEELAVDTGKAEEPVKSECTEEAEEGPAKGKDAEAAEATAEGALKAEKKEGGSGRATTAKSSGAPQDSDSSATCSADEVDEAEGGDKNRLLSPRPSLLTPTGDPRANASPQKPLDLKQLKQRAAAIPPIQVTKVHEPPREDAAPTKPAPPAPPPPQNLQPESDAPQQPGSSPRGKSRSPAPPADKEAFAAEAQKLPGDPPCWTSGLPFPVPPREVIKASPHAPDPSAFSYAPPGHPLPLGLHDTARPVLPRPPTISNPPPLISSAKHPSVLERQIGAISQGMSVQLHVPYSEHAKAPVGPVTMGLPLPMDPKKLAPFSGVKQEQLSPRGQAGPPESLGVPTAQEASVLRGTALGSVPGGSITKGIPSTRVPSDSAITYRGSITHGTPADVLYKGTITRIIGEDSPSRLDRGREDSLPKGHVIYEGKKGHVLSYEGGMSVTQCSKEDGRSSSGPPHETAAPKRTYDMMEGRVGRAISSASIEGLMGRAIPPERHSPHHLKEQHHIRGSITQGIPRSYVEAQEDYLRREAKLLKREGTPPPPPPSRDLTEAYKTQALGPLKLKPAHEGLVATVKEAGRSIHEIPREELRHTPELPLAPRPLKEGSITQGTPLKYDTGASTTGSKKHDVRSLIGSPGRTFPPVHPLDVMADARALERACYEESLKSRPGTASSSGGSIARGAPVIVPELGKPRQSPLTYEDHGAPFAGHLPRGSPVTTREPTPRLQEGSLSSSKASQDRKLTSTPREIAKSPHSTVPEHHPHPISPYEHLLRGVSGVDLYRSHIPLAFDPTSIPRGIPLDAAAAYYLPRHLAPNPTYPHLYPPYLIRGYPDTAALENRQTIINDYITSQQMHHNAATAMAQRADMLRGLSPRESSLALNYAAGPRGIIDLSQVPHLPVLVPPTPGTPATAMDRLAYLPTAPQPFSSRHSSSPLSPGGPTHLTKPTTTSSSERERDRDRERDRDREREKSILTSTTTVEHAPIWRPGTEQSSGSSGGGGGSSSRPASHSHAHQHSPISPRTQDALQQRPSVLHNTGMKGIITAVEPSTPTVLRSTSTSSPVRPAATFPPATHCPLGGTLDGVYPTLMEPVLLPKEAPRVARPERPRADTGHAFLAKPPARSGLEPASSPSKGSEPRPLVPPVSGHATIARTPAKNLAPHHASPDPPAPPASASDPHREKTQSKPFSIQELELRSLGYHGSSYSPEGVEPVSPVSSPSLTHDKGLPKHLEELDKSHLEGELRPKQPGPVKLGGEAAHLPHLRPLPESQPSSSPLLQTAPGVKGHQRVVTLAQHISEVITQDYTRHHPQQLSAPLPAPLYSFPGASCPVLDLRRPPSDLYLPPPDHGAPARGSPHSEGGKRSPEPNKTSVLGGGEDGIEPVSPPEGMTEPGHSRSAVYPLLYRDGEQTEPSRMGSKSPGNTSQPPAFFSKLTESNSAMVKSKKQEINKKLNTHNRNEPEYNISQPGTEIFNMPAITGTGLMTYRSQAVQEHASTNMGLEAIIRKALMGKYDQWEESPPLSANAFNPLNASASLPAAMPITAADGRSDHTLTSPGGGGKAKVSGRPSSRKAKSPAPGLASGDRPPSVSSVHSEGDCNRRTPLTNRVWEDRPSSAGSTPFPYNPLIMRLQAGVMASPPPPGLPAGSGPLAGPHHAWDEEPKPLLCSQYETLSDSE
Chain of Photoreceptor-specific nuclear receptor (Q9Y5X4 whole entry): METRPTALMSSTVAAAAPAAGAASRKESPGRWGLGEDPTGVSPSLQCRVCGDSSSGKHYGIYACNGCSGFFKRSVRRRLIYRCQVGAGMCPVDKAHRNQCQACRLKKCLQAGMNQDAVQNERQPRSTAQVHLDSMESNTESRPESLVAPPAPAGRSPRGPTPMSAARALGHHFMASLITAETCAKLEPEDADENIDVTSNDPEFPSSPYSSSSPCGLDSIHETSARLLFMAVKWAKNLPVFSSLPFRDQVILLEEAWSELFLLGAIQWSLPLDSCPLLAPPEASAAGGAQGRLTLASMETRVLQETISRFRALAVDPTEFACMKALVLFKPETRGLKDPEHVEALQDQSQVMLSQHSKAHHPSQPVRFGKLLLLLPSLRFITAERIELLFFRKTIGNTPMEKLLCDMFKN
Chain of Eukaryotic translation initiation factor 4E (P63073 whole entry): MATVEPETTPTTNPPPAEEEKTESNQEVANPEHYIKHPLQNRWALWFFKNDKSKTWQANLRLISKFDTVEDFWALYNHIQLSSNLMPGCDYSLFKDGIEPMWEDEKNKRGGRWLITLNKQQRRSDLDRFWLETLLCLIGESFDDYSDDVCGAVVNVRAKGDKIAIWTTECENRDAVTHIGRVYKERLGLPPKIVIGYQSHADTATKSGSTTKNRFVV
Chain of Lysosomal acid glucosylceramidase (P04062 whole entry): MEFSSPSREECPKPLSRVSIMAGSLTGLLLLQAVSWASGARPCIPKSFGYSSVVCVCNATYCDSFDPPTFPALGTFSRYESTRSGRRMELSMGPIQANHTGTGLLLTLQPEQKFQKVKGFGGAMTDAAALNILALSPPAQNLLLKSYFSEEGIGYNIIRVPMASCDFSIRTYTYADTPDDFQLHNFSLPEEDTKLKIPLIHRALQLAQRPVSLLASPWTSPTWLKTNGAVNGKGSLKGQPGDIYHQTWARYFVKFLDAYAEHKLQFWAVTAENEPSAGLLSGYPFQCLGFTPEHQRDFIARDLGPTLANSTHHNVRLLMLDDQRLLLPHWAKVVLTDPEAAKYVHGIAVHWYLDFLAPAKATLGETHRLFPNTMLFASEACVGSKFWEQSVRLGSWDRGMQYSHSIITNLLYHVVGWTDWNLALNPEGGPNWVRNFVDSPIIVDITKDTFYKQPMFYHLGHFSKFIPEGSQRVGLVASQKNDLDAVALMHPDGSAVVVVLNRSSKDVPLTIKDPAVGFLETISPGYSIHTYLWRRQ

`O=C(Nc1cccc(-c2nc3cccnc3s2)c1)C1c2ccccc2Oc2ccccc21`: the IC50 in experiment [1] is > 64 µM (inactive); in experiment [2], 7.46 µM (active). In addition, the AC50 in the experiment with Escherichia coli is 50.5 µM (active).
In the case of `Cc1c(CCC(=O)NCCCn2ccnc2)c(=O)oc2cc3oc4c(c3cc12)CCCC4`, the IC50 in [3] was 14.4 µM (not active); at Insulin-degrading enzyme it was 4.31 µM (active).
Turning to `COc1nccnc1NS(=O)(=O)c1ccc(NC(=S)NC(=O)c2cccnc2)cc1`, the EC50 in experiment [4] is > 50 µM (active).
For the molecule `CC(=O)C1=NN(c2ccccc2)C(c2cccs2)N1c1ccc(N(C)C)cc1` (configuration not stated), the results for the EC50 in experiment [5] and in experiment [6] were 0.776 µM (active) and > 60 µM (inconclusive), respectively. For the same molecule, the AC50 with INS1 was 3.1 µM (active). Moreover, the IC50 in experiment [7] was > 80 µM (inactive).
On to `Cc1ccc(C(=O)C2=C(O)C(=O)N(Cc3cccnc3)C2c2ccc(Br)cc2)o1` (configuration not stated), for which the half-inhibitory concentration (IC50) is > 39.8 µM (not active) in [8] and 9.36 µM (active) in [9].
On to `Cc1ccc(C(C(=O)NC2CCCCC2)N2CCCC2)cc1` (configuration not stated), for which the half-maximal effective concentration (EC50) in experiment [10] is listed as > 50 µM (not active).
As for `O=C(C1=C(O)C(=O)N(CCN2CCOCC2)C1c1ccc(Cl)cc1)c1cc2ccccc2o1` (configuration not stated), the IC50 was > 39.8 µM (not active) in [8] and 9.92 µM (active) in [9].
`COc1ccc(-n2ncc3c(N4CCCCC4)ncnc32)cc1`: the concentration at half-maximal activity (AC50) is 1.48 µM (active) in [11], > 70 µM (inactive) in [14], 2.87 µM (active) in experiment [15] and 11 µM (active) in experiment [17]. Further, the EC50 was 1.72 µM (inconclusive) in [12] and 0.282 µM (active) in experiment [16]. For the same molecule, in experiment [13], the IC50 was > 39.8 µM (not active).

The values above are taken from ChEMBL document CHEMBL1201862, “PubChem BioAssay data set” (2004).
